Measured values as given in ChEMBL document CHEMBL4831514, “Novel betulin dicarboxylic acid ester derivatives as potent antiviral agents: Design, synthesis, biological evaluation, structure-activity relationship and in-silico study” (Eur J Med Chem, 2021).
Activity calls are given as the source filed them. The rule behind the calls is not given here.

Assays:
[1] = system: Human alphaherpesvirus 1; test: Antiviral activity against Human herpesvirus-1 MacIntyre infected in A549 cells assessed as inhibition of viral adsorption at early stage of replication treated for 1 hr during viral infection followed by replacement with fresh medium and measured after 48 hrs by MTT assay; format: functional, organism-based
[2] = system: Human adenovirus 5; test: Antiviral activity against Human adenovirus 5 Adenoid 75 infected in A549 cells assessed as inhibition of viral adsorption at early stage of replication treated for 1 hr during viral infection followed by replacement with fresh medium and measured after 72 hrs by MTT assay; format: functional, organism-based
[3] = system: A549; test: Cytotoxicity against human A549 cells assessed as reduction in cell viability incubated for 48 hrs by MTT assay; format: cell-based; settings: a549, 48 h
[4] = system: Enterovirus E; test: Antiviral activity against Enterovirus E LCR-4 infected in A549 cells assessed as inhibition of viral adsorption at early stage of replication treated for 1 hr during viral infection followed by replacement with fresh medium and measured after 72 hrs by MTT assay; format: functional, organism-based
[5] = system: MDCK; test: Cytotoxicity against MDCK cells assessed as reduction in cell viability incubated for 72 hrs by MTT assay; format: cell-based, Canis lupus familiaris; settings: dog, mdck, 72 h
[6] = system: Vesicular stomatitis virus; test: Antiviral activity against Vesicular stomatitis virus Indiana infected in A549 cells assessed as reduction in virus titer preincubated for 24 hrs followed by viral infection and measured after 72 hrs by microscopic analysis; format: functional, organism-based
[7] = system: Human adenovirus 5; test: Antiviral activity against Human adenovirus 5 Adenoid 75 infected in A549 cells assessed as reduction in virus titer preincubated for 24 hrs followed by viral infection and measured after 72 hrs by microscopic analysis; format: functional, organism-based
[8] = system: Human alphaherpesvirus 1; test: Antiviral activity against Human herpesvirus 1 MacIntyre infected in A549 cells assessed as reduction in virus titer preincubated for 24 hrs followed by viral infection and measured after 72 hrs by microscopic analysis; format: functional, organism-based

SMILES | Activity [1] | Activity [2] | CC20 [3] [µM] | Activity [4] | CC20 [5] [µM] | Activity [6] | Activity [7] | Activity [8]
Nc1ccn(C[C@@H](CO)OCP(=O)(O)O)c(=O)n1.O.O [CIDOFOVIR] | inactive | inactive | 358.42 | inactive |  |  |  | 
C=C(C)[C@@H]1CC[C@]2(COC(=O)/C=C/C(=O)O)CC[C@]3(C)[C@H](CC[C@@H]4[C@@]5(C)CC[C@H](O)C(C)(C)[C@@H]5CC[C@]43C)[C@@H]12 | inactive | inactive | 11.55 | inactive | 5.73 | inactive | inactive | inactive
C=C(C)[C@@H]1CC[C@]2(COC(=O)CCCCCCCCCC(=O)N3CCCCC3)CC[C@]3(C)[C@H](CC[C@@H]4[C@@]5(C)CC[C@H](O)C(C)(C)[C@@H]5CC[C@]43C)[C@@H]12 | inactive | inactive | 127.23 | inactive | 127.84 | inactive | inactive | inactive
C#CC1(NC(=O)c2cccc(C(=O)OC[C@]34CC[C@@H](C(=C)C)[C@@H]3[C@H]3CC[C@@H]5[C@@]6(C)CC[C@H](O)C(C)(C)[C@@H]6CC[C@@]5(C)[C@]3(C)CC4)c2)CCCCC1 | inactive | inactive | 104.82 | inactive | 104.82 | inactive | inactive | inactive
C=C(C)[C@@H]1CC[C@]2(COC(=O)CCC(=O)O)CC[C@]3(C)[C@H](CC[C@@H]4[C@@]5(C)CCC(O)C(C)(C)[C@@H]5CC[C@]43C)[C@@H]12 (single isomer, unassigned) | inactive | inactive | 11.51 | inactive | 11.51 | inactive | inactive | inactive
C=C(C)[C@@H]1CC[C@]2(COC(=O)CCC(=O)N3CCSCC3)CC[C@]3(C)[C@H](CC[C@@H]4[C@@]5(C)CC[C@H](O)C(C)(C)[C@@H]5CC[C@]43C)[C@@H]12 | inactive | inactive | 62.42 | inactive | 124.84 | inactive | inactive | inactive
C=C(C)[C@@H]1CC[C@]2(COC(=O)c3cccc(C(=O)O)c3)CC[C@]3(C)[C@H](CC[C@@H]4[C@@]5(C)CC[C@H](O)C(C)(C)[C@@H]5CC[C@]43C)[C@@H]12 | inactive | inactive | 21.15 | inactive | 42.3 | inactive | inactive | inactive
C#CC1(NC(=O)CCC(=O)OC[C@]23CC[C@@H](C(=C)C)[C@@H]2[C@H]2CC[C@@H]4[C@@]5(C)CC[C@H](O)C(C)(C)[C@@H]5CC[C@@]4(C)[C@]2(C)CC3)CCCCC1 | inactive | inactive | 110.38 | inactive | 0.77 | inactive | inactive | inactive
C=C(C)[C@@H]1CC[C@]2(COC(=O)CCCC(=O)N3CCSCC3)CC[C@]3(C)[C@H](CC[C@@H]4[C@@]5(C)CC[C@H](O)C(C)(C)[C@@H]5CC[C@]43C)[C@@H]12 | inactive | inactive | 122.7 | inactive | 61.35 | inactive | inactive | inactive
C#CCNC(=O)/C(C)=C/C(=O)OC[C@]12CC[C@@H](C(=C)C)[C@@H]1[C@H]1CC[C@@H]3[C@@]4(C)CC[C@H](O)C(C)(C)[C@@H]4CC[C@@]3(C)[C@]1(C)CC2 | inactive | inactive | 10.56 | inactive | 84.46 | inactive | inactive | inactive
C#CCNC(=O)CCC(=O)OC[C@]12CC[C@@H](C(=C)C)C1[C@H]1CC[C@@H]3[C@@]4(C)CC[C@H](O)C(C)(C)[C@@H]4CC[C@@]3(C)[C@]1(C)CC2 (single isomer, unassigned) | inactive | inactive | 10.78 | inactive | 5.34 | inactive | inactive | inactive
C#CC1(NC(=O)CCCCCCCCCC(=O)OC[C@]23CC[C@@H](C(=C)C)[C@@H]2[C@H]2CCC4[C@@]5(C)CC[C@H](O)C(C)(C)[C@@H]5CC[C@@]4(C)[C@]2(C)CC3)CCCCC1 (single isomer, unassigned) | inactive | inactive | 102.46 | inactive | 102.46 | inactive | inactive | inactive
C=C(C)[C@@H]1CC[C@]2(COC(=O)c3cccc(C(=O)N4CCSCC4)c3)CC[C@]3(C)[C@H](CC[C@@H]4[C@@]5(C)CC[C@H](O)C(C)(C)[C@@H]5CC[C@]43C)C12 (single isomer, unassigned) | inactive | inactive | 117.79 | inactive | 117.79 | inactive | inactive | inactive
C=C(C)[C@@H]1CC[C@]2(CO)CC[C@]3(C)[C@H](CC[C@@H]4[C@@]5(C)CC[C@H](O)C(C)(C)[C@@H]5CC[C@]43C)[C@@H]12 [BETULIN] | inactive | inactive | 28.22 | inactive | 28.22 | inactive | inactive | inactive
C=C(C)[C@@H]1CCC2(COC(=O)CCCCCCCCCC(=O)N3CCSCC3)CC[C@]3(C)[C@H](CC[C@@H]4[C@@]5(C)CC[C@H](O)C(C)(C)[C@@H]5CC[C@]43C)[C@@H]12 (single isomer, unassigned) | inactive | inactive | 114.81 | inactive | 114.81 | inactive | inactive | inactive
C=C(C)[C@@H]1CC[C@]2(COC(=O)/C=C(\C)C(=O)N3CCSCC3)CC[C@]3(C)[C@H](CC[C@@H]4[C@@]5(C)CC[C@H](O)C(C)(C)[C@@H]5CC[C@]43C)[C@@H]12 | inactive | inactive | 61.5 | inactive | 61.5 | inactive | inactive | inactive
